Measurements as given in patent US8236792B2, “Substituted pyrrolidine amides as modulators of the histamine H3 receptor” (Janssen Pharmaceutica NV, priority 2008, dated 2012).
Where two headings read alike, the source gives them in different places.

Experiments:
rat H3 receptor = molecular target: T1, rat H3 receptor (Rattus norvegicus, UniProt Q9QYN8); assay: Cyclic AMP Accumulation (rat H3 reporter subline); assay type: cell-based
T1 construct: expressed in transfected cells; host or cells: SK-N-MC sublines with a reporter construct
T1 sequence (Q9QYN8 whole entry): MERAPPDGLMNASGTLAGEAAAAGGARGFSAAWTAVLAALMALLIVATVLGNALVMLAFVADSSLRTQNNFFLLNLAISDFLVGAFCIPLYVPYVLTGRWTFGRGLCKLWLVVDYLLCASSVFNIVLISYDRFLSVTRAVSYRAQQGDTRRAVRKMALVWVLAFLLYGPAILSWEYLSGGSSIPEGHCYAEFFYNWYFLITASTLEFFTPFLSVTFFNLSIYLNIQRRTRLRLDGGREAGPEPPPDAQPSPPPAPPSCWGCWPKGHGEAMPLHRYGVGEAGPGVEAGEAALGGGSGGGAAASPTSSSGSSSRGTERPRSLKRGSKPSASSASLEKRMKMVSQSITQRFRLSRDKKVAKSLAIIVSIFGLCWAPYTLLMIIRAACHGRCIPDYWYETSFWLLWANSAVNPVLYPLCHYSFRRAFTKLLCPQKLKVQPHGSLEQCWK
Procedure: (§1) Sublines of SK-N-MC cells were created that expressed a reporter construct and either the human or rat H3 receptor. […] Compounds were tested in their free base or trifluoroacetate salt forms.

cloned rat H3 receptors = molecular target: T2, cloned rat H3 receptors (Rattus norvegicus, UniProt Q9QYN8); assay: H3 Receptor Binding (Rat)
T2 construct: expressed in transfected cells
T2 sequence (Q9QYN8 whole entry): as above
Procedure: Compounds were tested for binding to cloned rat H3 receptors, stably expressed in SK-N-MC cells.
Compounds were tested in their free base or hydrochloride salt forms.

human H3 receptor [1] = molecular target: T3, human H3 receptor (Homo sapiens, UniProt Q9Y5N1); assay: H3 Receptor Binding (Human) Method 2, [125I]-iodoproxyfan competitive radioligand binding; set-up: expressed in transfected cells
T3 sequence (Q9Y5N1 whole entry): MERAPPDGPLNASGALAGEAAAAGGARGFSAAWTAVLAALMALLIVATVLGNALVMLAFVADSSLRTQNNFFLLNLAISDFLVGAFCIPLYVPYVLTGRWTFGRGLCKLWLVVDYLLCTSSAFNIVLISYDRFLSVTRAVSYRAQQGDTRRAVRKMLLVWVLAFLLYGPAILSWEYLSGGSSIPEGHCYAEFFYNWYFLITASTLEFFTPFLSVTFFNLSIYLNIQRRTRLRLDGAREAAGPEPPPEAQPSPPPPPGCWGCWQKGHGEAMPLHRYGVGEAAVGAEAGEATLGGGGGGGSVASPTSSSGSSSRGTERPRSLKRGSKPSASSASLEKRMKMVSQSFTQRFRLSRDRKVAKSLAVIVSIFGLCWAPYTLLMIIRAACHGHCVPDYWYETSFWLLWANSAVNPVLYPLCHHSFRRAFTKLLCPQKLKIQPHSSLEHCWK

human H3 receptor [2] = molecular target: T3, human H3 receptor; assay: Cyclic AMP Accumulation (human H3 reporter subline); assay type: cell-based; set-up: expressed in transfected cells; host or cells: SK-N-MC sublines with a reporter construct; settings: SK-N-MC subline with reporter construct and human H3 receptor, free base or trifluoroacetate salt, average; for Kb: read-out: Human pA2 (converted)
Procedure: as §1

[3] = molecular target: T4, cloned human H3 receptors (Homo sapiens, UniProt Q9Y5N1); assay: H3 Receptor Binding (Human) Method 1; settings: receptor stably expressed in SK-N-MC cells, free base forms, average of results
T4 construct: expressed in transfected cells
T4 sequence (Q9Y5N1 whole entry): as above

[4] = SK-N-MC subline with reporter construct and rat H3 receptor, free base or trifluoroacetate salt, average, read-out: Rat pA2 (converted)
[5] = receptor stably expressed in SK-N-MC cells, free base or hydrochloride salt, average of results, read-out: Rat H3 Ki
[6] = SK-N-MC subline with reporter construct and rat H3 receptor, free base or trifluoroacetate salt, average

With `N#Cc1ccc(O[C@@H]2CN[C@@H](C(=O)N3CCCN(C4CCC4)CC3)C2)cc1` [Example 64, (3S,5R)-4-[5-(4-Cyclobutyl-[1,4]diazepane-1-carbonyl)-pyrrolidin-3-yloxy]-benzonitrile] the Kb (rat H3 receptor; [4]) was 12.9 nM and the Ki (cloned rat H3 receptors) was 466 nM.
With `O=C([C@H]1C[C@H](Oc2cccc(F)c2)CN1)N1CCCN(C2CCC2)CC1` [Example 65, (2R,4S)-4-(3-Fluoro-phenoxy)-2-(4-cyclobutyl-[1,4]diazepane-1-carbonyl)-pyrrolidine] the Kb (rat H3 receptor; [4]) was 7.41 nM and the Ki (cloned rat H3 receptors) was 12 nM.
`O=C([C@H]1C[C@H](Oc2ccccc2)CN1)N1CCCN(C2CCC2)CC1` [Example 67, (2R,4S)-4-Phenoxy-2-(4-cyclobutyl-[1,4]diazepane-1-carbonyl)-pyrrolidine] was tested, and the Ki (human H3 receptor [1]) was 5 nM, the Kb (rat H3 receptor; [4]) was 57.5 nM and the “Human pA2” value (human H3 receptor [2]) was 8.09. The Ki (cloned rat H3 receptors; [5]) was 502 nM.
`O=C([C@H]1C[C@H](Oc2cccc(Cl)c2)CN1)N1CCCN(C2CCC2)CC1` [Example 68, (2R,4S)-4-(3-chloro-phenoxy)-2-(4-cyclobutyl-[1,4]diazepane-1-carbonyl)-pyrrolidine] was tested, and the “Rat pA2” value (rat H3 receptor; [6]) was 8.59.
In the case of `O=C([C@H]1C[C@H](Oc2ccc(Cl)cc2)CN1)N1CCCN(C2CCC2)CC1` [Example 69, (2R,4S)-4-(4-Chloro-phenoxy)-2-(4-cyclobutyl-[1,4]diazepane-1-carbonyl)-pyrrolidine], the “Rat pA2” value (rat H3 receptor; [6]) is reported as 8.30 and the Ki (cloned rat H3 receptors; [5]) is reported as 18 nM.
`CSc1ccc(O[C@@H]2CN[C@@H](C(=O)N3CCCN(C4CCC4)CC3)C2)cc1` [Example 71, (2R,4S)-4-(4-Methylsulfanyl-Phenoxy)-2-(4-cyclobutyl-[1,4]diazepane-1-carbonyl)-pyrrolidine] showed a Ki (human H3 receptor [1]) of 3 nM, a Kb (rat H3 receptor; [4]) of 10.7 nM and a Kb (human H3 receptor [2]) of 2.04 nM. For the same compound, the Ki (cloned rat H3 receptors) was 54 nM.
`Cc1cc(O[C@@H]2CN[C@@H](C(=O)N3CCCN(C4CCC4)CC3)C2)ccc1Cl` [Example 72, (2R,4S)-4-(4-Chloro-3-methyl-phenoxy)-2-(4-cyclobutyl-[1,4]diazepane-1-carbonyl)-pyrrolidine] showed a Ki (human H3 receptor [1]) of 3 nM, a Kb (rat H3 receptor; [4]) of 4.9 nM and a Kb (human H3 receptor [2]) of 1.02 nM. For the same compound, the Ki (cloned rat H3 receptors; [5]) was 36 nM.
`O=C([C@H]1C[C@H](Oc2ccc(F)cc2)CN1)N1CCCN(C2CCCC2)CC1` [Example 82, (2R,4S)-2-(4-Cyclopentyl-[1,4]diazepane-1-carbonyl)-4-(4-fluoro-phenoxy)-pyrrolidine] was tested, and the “Rat pA2” value (rat H3 receptor; [6]) was 8.21 and the Ki (cloned rat H3 receptors; [5]) was 18 nM.
In the case of `N#Cc1ccc(O[C@@H]2CN[C@@H](C(=O)N3CCCN(C4CCCC4)CC3)C2)cc1` [Example 83, (2R,4S)-4-(4-Cyano-phenoxy)-2-(4-cyclopentyl-[1,4]diazepane-1-carbonyl)-pyrrolidine], the “Rat pA2” value (rat H3 receptor; [6]) is reported as 8.51 and the Ki (cloned rat H3 receptors) is reported as 16 nM.
`N#Cc1ccc(O[C@H]2CN[C@H](C(=O)N3CCCN(C4CCC4)CC3)C2)cc1` [Example 94, (2S,4R)-4-(4-Cyano-phenoxy)-2-(4-cyclobutyl-[1,4]diazepane-1-carbonyl)-pyrrolidine] gave a Kb (rat H3 receptor; [4]) of 110 nM and a Ki (cloned rat H3 receptors) of 150 nM.
Compound `CSc1ccc(O[C@H]2CN[C@H](C(=O)N3CCCN(C4CCC4)CC3)C2)cc1` [Example 96, (2S,4R)-2-(4-Cyclobutyl-[1,4]diazepane-1-carbonyl)-4-(4-methylsulfanyl-phenoxy)-pyrrolidine] has a Kb (rat H3 receptor; [4]) of 112 nM, a Kb (human H3 receptor [2]) of 20.9 nM and a Ki [3] of 11 nM. For the same compound, the Ki (cloned rat H3 receptors) was 84 nM.
For `O=C([C@H]1C[C@H](Oc2ccsc2)CN1)N1CCCN(C2CCC2)CC1` [Example 102, (2R,4S)-2-(4-Cyclobutyl-[1,4]diazepane-1-carbonyl)-4-(thiophen-3-yloxy)-pyrrolidine], the Ki (human H3 receptor [1]; read-out: Human H3 Ki) was 5 nM, the Kb (rat H3 receptor; [4]) was 21.9 nM and the “Human pA2” value (human H3 receptor [2]) was 8.65.
`CN1C[C@@H](Oc2ccc(F)cc2)C[C@@H]1C(=O)N1CCCN(C2CCC2)CC1` [Example 110, (2R,4S)-1-Methyl-2-(4-cyclobutyl-[1,4]diazepane-1-carbonyl)-4-(4-fluoro-phenoxy)-pyrrolidine] showed a Kb (rat H3 receptor) of 16.6 nM and a Ki (cloned rat H3 receptors) of 477 nM.
With `CC(=O)N1C[C@@H](Oc2ccc(F)cc2)C[C@@H]1C(=O)N1CCCN(C2CCC2)CC1` [Example 120, (2R,4S)-1-[2-(4-Cyclobutyl-[1,4]diazepane-1-carbonyl)-4-(4-fluoro-phenoxy)-pyrrolidin-1-yl]-ethanone] the Kb (rat H3 receptor; [4]) was 1.62 nM and the Ki (cloned rat H3 receptors; [5]) was 30 nM.
For `CC(=O)N1C[C@@H](Oc2cccc(F)c2)C[C@@H]1C(=O)N1CCCN(C2CCC2)CC1` [Example 131, (2R,4S)-1-[2-(4-Cyclobutyl-[1,4]diazepane-1-carbonyl)-4-(3-fluoro-phenoxy)-pyrrolidin-1-yl]-ethanone], the Ki (human H3 receptor [1]) was 2 nM, the “Rat pA2” value (rat H3 receptor; [6]) was 8.22 and the Ki (cloned rat H3 receptors) was 17 nM.
For `CC(=O)N1C[C@@H](Oc2ccsc2)C[C@@H]1C(=O)N1CCCN(C2CCC2)CC1` [Example 134, (2R,4S)-1-[2-(4-Cyclobutyl-[1,4]diazepane-1-carbonyl)-4-(thiophen-3-yloxy)-pyrrolidin-1-yl]-ethanone], the Ki (human H3 receptor [1]; read-out: Human H3 Ki) was 3 nM, the Kb (rat H3 receptor; [4]) was 8.71 nM and the “Human pA2” value (human H3 receptor [2]) was 9.28.
Work on `O=C([C@H]1C[C@H](OCc2cccc(F)c2)CN1)N1CCCN(C2CCC2)CC1` [Example 152, (2R,4S)-2-(4-Cyclobutyl-[1,4]diazepane-1-carbonyl)-4-(3-fluoro-benzyloxy)-pyrrolidine] yielded a Ki (human H3 receptor [1]; read-out: Human H3 Ki) of 4 nM and a Ki (cloned rat H3 receptors; [5]) of 8 nM.
`O=C([C@H]1C[C@H](OCc2ccc(F)cc2)CN1)N1CCCN(C2CCC2)CC1` [Example 153, (2R,4S)-2-(4-Cyclobutyl-[1,4]diazepane-1-carbonyl)-4-(4-fluoro-benzyloxy)-pyrrolidine] showed a Ki (human H3 receptor [1]; read-out: Human H3 Ki) of 3 nM and a Ki (cloned rat H3 receptors; [5]) of 13 nM.
